Test results: patent US5994396A, “Furansulfonic acid derivatives and pharmaceutical compositions containing the same” (priority 1998, dated 1999)
Structures can show the parent of a compound that is named as a salt.

Columns and labels:
synthetic Aβ(1-40) = target: T1, synthetic Aβ(1-40) (Homo sapiens, UniProt P05067); assay: Inhibition of Aβ(1-40) beta-pleated sheet formation (thioflavin T fluorescence); assay type: biochemical; conditions: compound 10 μM; ThT 3 μM in PBS pH 6.0; Aβ(1-40) 3 μg; fluorescence increase over 12-24 hours; read-out: percent inhibition of Aβ(1-40) beta-pleated sheet formation compared to the controls
T1 construct: particularly the aggregated fibrils of synthetic Aβ(1-40)
Procedure: Thioflavin T (ThT) is known to rapidly associate with beta-pleated sheets, particularly the aggregated fibrils of synthetic Aβ(1-40). This association gives rise to a new excitation maximum at 440 nm and to enhanced emission at 490 nm.
The experiments were performed using a CytoFluor II fluorescence plate reader having the following parameters: […]
Into each well was aliquoted 95 μl of ThT (3 μM) prepared in PBS (pH 6.0), 2 μL of the compound to be tested (10 μM) prepared with 0.05% of methylcellulose in PBS (pH 6.0), and 3 μL of Aβ(1-40) (3 μg) prepared with dH2 O. The fluorescence measurement began when the Aβ(1-40) was added and continued for a total of 12-24 hours. The percent inhibition of beta-pleated sheet formation was calculated from the relative fluorescence unit increase over the 12-24 hours between aggregation in the presence and in the absence of the test compounds.

[1] = tested on: rat embryonic hippocampal primary neuronal/astrocytic cultures; assay: Protection against Aβ(25-35)-induced neuronal cell loss; assay type: cell-based, Sprague Dawley rat; conditions: Neuron, 100 μM test compound, 30 μM Aβ(25-35), 96 hours treatment, morphologically viable neurons counted, read-out: reduction of Aβ(25-35)-induced neuronal cell loss compared to the controls
Procedure: Sprague Dawley rat hippocampus of 18-day-gestation embryos was excised and then dissociated by trituration to prepare primary neuronal/astrocytic cultures. Cells (3×10^5) were plated on 35 mm poly-D-lysine-coated plates containing Eagle's minimum essential medium supplemented with 10% fetal bovine serum. After 3-5 hours, the original medium was removed and replaced with 1 mL of fresh medium. Cultures were maintained at 37° C. in a 5% CO2 /95% air, humidified incubator.
To the cells (7 DIV) was added 30 μM of Aβ(25-35) dissolved in dH2 O (stored at -20° C.) and 100 μM of the test compound in 1% methylcellulose. Controls were also conducted without the test compound. The percentage of morphologically viable neurons was determined counting the number of viable neurons after 96 hours treatment compared to the number of neurons before treatment in the same premarked culture regions (three regions/culture). The number of wells was n=6 per treatment condition.

[2] = tested on: interleukin-1β (IL-1β) release, THP-1 cells; assay: Reduction of LPS and β-amyloid-induced increased release of interleukin-1β in THP-1 cells (ELISA); assay type: cell-based; conditions: Homo sapiens, 100 μM test compound with LPS and Aβ(25-35), 48 hours, read-out: reduction of β-amyloid-induced increased release of interleukin-1β compared to the controls
Procedure: (§1) THP-1 cells, a human monocyte cell line from American Type Culture Collection, were grown in RPMI-1640 medium plus 10% fetal bovine serum (FBS, not heat-inactivated) in T-flasks. The medium was changed every two days by spinning down (800 rpm, 5 minutes) the cells, replating cells and adding fresh medium. Alternatively, the cultures were maintained by the addition of fresh medium. The cultures were maintained at a cell concentration ranging from between 1×10^5 and 1×10^6 cells/mL. Because sera may contain unknown factors which can affect macrophage/monocyte IL-1 production, the FBS was reduced to 5% for 24 hours. The FBS was further reduced to 2% over two days prior to starting each experiment. The cells were collected by centrifugation and resuspended into 2% FBS. Cell numbers were calculated and cells were plated on 24-well plates (3×10^5 cells/0.6 mL/well). Cells were then treated with LPS (0.5 μg/ml or 0-10 μg/ml for LPS dose-responseexperiments) alone or in combination with Aβ peptides (5 μM or 0.05-5 μM for dose-response experiments). When determining the effect of the test compounds on IL-1β, IL-6 and TNFα release, 100 μM of the test compound was added with the LPS and Aβ(25-35) and this mixture was incubated for 48 hours prior to performing ELISA.
(§2) IL-1β, IL-6 and TNFα secretions into medium by LPS-stimulated THP-1 cells, in the presence or absence of amyloid peptides and a test compound, were assayed with a commercially available ELISA kit (R & D Systems). Briefly, a microtiter plate coated with a murine monoclonal antibody to human IL-1β, IL-6, or TNFα was supplied by the manufacturer. Standards and samples were pipetted into the wells and any IL-1β, IL-6 or TNFα present was bound by the immobilized antibody. Unbound proteins were washed away and a horseradish peroxidase-linked polyclonal antibody specific for IL-1β, IL-6 or TNFα was added to the wells to "sandwich" the IL-1β, IL-6 and TNFα bound in the initial step. After washing to remove any unbound antibody-enzyme reagent, a substrate solution (1:1 hydrogen peroxide:tetramethylbenzidine, v/v) was added to the wells and color developed in proportion to the amount of IL-1β, IL-6 or TNFα bound in the initial step. Color development was stopped with 2 N sulfuric acid and the optical density of the standard and the test samples was measured at 450 nm. The amounts of IL-1β, IL-6 or TNFα present in the samples were calculated based upon a standard curve. Assays were run in quadruplicate wells.

[3] = tested on: interleukin-6 (IL-6) release, THP-1 cells; assay: Reduction of LPS and β-amyloid-induced increased release of interleukin-6 in THP-1 cells (ELISA); assay type: cell-based; conditions: Homo sapiens, 100 μM test compound with LPS and Aβ(25-35), 48 hours, read-out: reduction of β-amyloid-induced increased release of interleukin-6 compared to the controls
Procedure: as §1, §2

[4] = tested on: tumor necrosis factor-α (TNFα) release, THP-1 cells; assay: Reduction of LPS and β-amyloid-induced increased release of tumor necrosis factor-α in THP-1 cells (ELISA); assay type: cell-based; conditions: Homo sapiens, 100 μM test compound with LPS and Aβ(25-35), 48 hours, read-out: reduction of β-amyloid-induced increased release of tumor necrosis factor-α compared to the controls
Procedure: as §1, §2

[5] = tested on: rats injected with Aβ(25-35); assay: Reduction of locomotor impairment due to Aβ-peptide injected into substantia nigra; assay type: in vivo, Sprague-Dawley rat; conditions: oral 1-10 mg/kg one hour before and three hours post 20 μg Aβ(25-35) injection; tested one week after treatment
Procedure: Male Sprague-Dawley rats (250-400 g) were given injections of 20 μg of Aβ(25-35) into their substantia nigra. Prior to the injection, the rats were fasted overnight and then each received an oral treatment of the test compound (1-10 mg/kg) dissolved in aqueous 1% methyl cellulose or the vehicle alone, one hour before and three hours post the Aβ-peptide stereotaxic injection. One week after treatment, the rats were dosed s.c. with 0.5 mg/kg apomorphine (dissolved in 0.1% vitamin C in isotonic saline) and the circling reflex was monitored using a Rotorat computerized behavioral monitoring apparatus for the time period between 15 and 30 minutes of being placed in the arena. Impairment of the animals due to Aβ-peptide was determined by measuring the number of rotations over the 15 minute period.

[6] = tested on: MRL/MpJfas^1pr mutant mice; assay: Reduction of cognitive deficits in autoimmune mice (T-maze); assay type: in vivo, mouse; conditions: Fas^1pr mice; 100 mg/kg p.o. daily from 2 to 4 months of age (9 weeks); versus untreated mutant mice
Source text: MRL/MpJfas^1pr ("mutant mice" or "Fas^1pr ") strains of mice have been described as useful models of Lupus due to their autoimmune lymphoproliferatory pathology. In particular, the mutant mice show a cognitive deficit at approximately four months of age, which is not observed at two months of age. See, for example, Forster et al., 1988, Behav. Neural Biology, 49, 139-151.
In the experiment, wild-type ("++") and Fas^1pr strains of mice were received at 4 to 8 weeks of age (n=10-11). The compound of Example 1 above or 1% methylcellulose (100 mg/kg p.o.) was administered daily from 2 months of age to 4 months of age (a total of 9 weeks). After reaching 4 months of age, the mice were tested for cognitive ability in a T-maze. This behavioral task measures discrimination, active avoidance and acquisition skills (acquisition is the number of avoidances in the first 5 test trials).

T1 sequence (P05067 672-711): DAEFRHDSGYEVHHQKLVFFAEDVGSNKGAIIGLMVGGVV

SMILES | inhibition at 10 µM (synthetic Aβ(1-40)) | inhibition at 100 µM [1] | inhibition at 100 µM [2] | inhibition at 100 µM [3] | inhibition at 100 µM [4] | locomotor impairment (apomorphine-induced rotations over 15 minute period) compared to Aβ(25-35)-treated controls [5] | acquisition in T-maze (FIG. 1) [6] | avoidance in T-maze (FIG. 2) [6]
CCCCNC(=O)c1ccc(S(=O)(=O)[O-])o1.[Na+] [Example 1, N-n-Butyl-5-carbamoylfuran-2-sulfonic Acid Sodium Salt] | ≥ 10% | ≥ 60% | ≥ 20% | ≥ 20% | ≥ 20% | reduced the locomotor impairment | acquired avoidance skills earlier than untreated mutant mice | reduced avoidance values
CC(C)NC(=O)c1ccc(S(=O)(=O)O)o1 [Example 2, N-Isopropyl-5-carbamoylfuran-2-sulfonic Acid Sodium Salt] | ≥ 10% | ≥ 60% | ≥ 20% | ≥ 20% | ≥ 20% | – | – | –
CCCCNC(=O)C=Cc1ccc(S(=O)(=O)O)o1 [Example 5, 5-[2-(N-n-Butylcarbamoyl)eth-1-enyl]-furan-2-sulfonic Acid Sodium Salt] | – | ≥ 60% | ≥ 20% | ≥ 20% | ≥ 20% | – | – | –
CCCCNC(=O)CCc1ccc(S(=O)(=O)O)o1 [Example 6, 5-[2-(N-n-Butylcarbamoyl)ethyl]-furan-2-sulfonic Acid Sodium Salt] | ≥ 10% | – | ≥ 20% | ≥ 20% | ≥ 20% | – | – | –
